PubChem BioAssay AID256 (DTP/NCI, 2004)
Where “and” joins values, the source holds several entries; their conditions need not be identical. Equal entries are not always repeated. Inconclusive results and toxic doses are left out. How the source made its calls: active means survival T/C of 150% or more; inactive means T/C below 125% in these data.

Tested on: CD2F1 mice, L1210 leukemia ip, survival T/C
Assay: NCI In Vivo Anticancer Drug Screen. Data for tumor model L1210 Leukemia (intraperitoneal) in CD2F1 (CDF1) mice
Settings: higher = longer survival
How it was run: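 Implant tumor; dose compound or vehicle; measure endpoint in both groups; report treated divided by control.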

[1] = endpoint: mean survival time, dose: 50.0 mg/kg/injection, schedule: Q01DX009 (ip), vehicle: saline with Tween-80
[2] = endpoint: mean survival time, dose: 100.0 mg/kg/injection, schedule: Q01DX009 (ip), vehicle: saline with Tween-80
[3] = endpoint: mean survival time, dose: 100.0 mg/kg/injection, schedule: Q04DX003 (ip), vehicle: saline with Tween-80
[4] = endpoint: mean survival time, dose: 200.0 mg/kg/injection, schedule: Q01DX009 (ip), vehicle: saline with Tween-80
[5] = endpoint: mean survival time, dose: 200.0 mg/kg/injection, schedule: Q04DX003 (ip), vehicle: saline with Tween-80
[6] = endpoint: mean survival time, dose: 400.0 mg/kg/injection, schedule: Q01DX009 (ip), vehicle: saline with Tween-80
[7] = endpoint: mean survival time, dose: 400.0 mg/kg/injection, schedule: Q04DX003 (ip), vehicle: saline with Tween-80
[8] = endpoint: mean survival time, dose: 100.0 mg/kg/injection, schedule: Q01DX001 (ip), vehicle: saline
[9] = endpoint: mean survival time, dose: 100.0 mg/kg/injection, schedule: Q04DX003 (ip), vehicle: saline
[10] = endpoint: mean survival time, dose: 200.0 mg/kg/injection, schedule: Q01DX001 (ip), vehicle: saline
[11] = endpoint: mean survival time, dose: 200.0 mg/kg/injection, schedule: Q04DX003 (ip), vehicle: saline
[12] = endpoint: mean survival time, dose: 25.0 mg/kg/injection, schedule: Q01DX009 (ip), vehicle: Klucel (hydroxypropylcellulose) (HPC)
[13] = endpoint: mean survival time, dose: 50.0 mg/kg/injection, schedule: Q01DX009 (ip), vehicle: Klucel (hydroxypropylcellulose) (HPC)
[14] = endpoint: mean survival time, dose: 100.0 mg/kg/injection, schedule: Q01DX009 (ip), vehicle: Klucel (hydroxypropylcellulose) (HPC)
[15] = endpoint: mean survival time, dose: 200.0 mg/kg/injection, schedule: Q01DX009 (ip), vehicle: Klucel (hydroxypropylcellulose) (HPC)
[16] = endpoint: mean survival time, dose: 400.0 mg/kg/injection, schedule: Q01DX009 (ip), vehicle: Klucel (hydroxypropylcellulose) (HPC)
[17] = endpoint: mean survival time, dose: 400.0 mg/kg/injection, schedule: Q04DX003 (ip), vehicle: saline

Measured: T/C

COc1cc(OC)c(NC(=O)ON2C(=O)c3ccccc3C2=O)cc1Cl
inactive: endpoint: mean survival time, dose: 0.19 mg/kg/injection, schedule: Q01DX009 (ip), vehicle: saline with Tween-80 97 % of control | endpoint: mean survival time, dose: 0.39 mg/kg/injection, schedule: Q01DX009 (ip), vehicle: saline with Tween-80 94 % of control | endpoint: mean survival time, dose: 0.78 mg/kg/injection, schedule: Q01DX009 (ip), vehicle: saline with Tween-80 100 % of control | endpoint: mean survival time, dose: 1.56 mg/kg/injection, schedule: Q01DX009 (ip), vehicle: saline with Tween-80 97 % of control | endpoint: mean survival time, dose: 3.12 mg/kg/injection, schedule: Q01DX009 (ip), vehicle: saline with Tween-80 116 % of control and 96 % of control | endpoint: mean survival time, dose: 6.25 mg/kg/injection, schedule: Q01DX009 (ip), vehicle: saline with Tween-80 100 % of control | endpoint: mean survival time, dose: 12.5 mg/kg/injection, schedule: Q01DX009 (ip), vehicle: saline with Tween-80 103 % of control | endpoint: mean survival time, dose: 25.0 mg/kg/injection, schedule: Q01DX009 (ip), vehicle: saline with Tween-80 103 % of control | [1] 101 % of control | [2] 103 % of control

Nc1cc(OCc2ccccc2)c(N)c(N)n1
inactive: endpoint: mean survival time, dose: 1.56 mg/kg/injection, schedule: Q01DX005 (ip), vehicle: water 98 % of control | endpoint: mean survival time, dose: 3.13 mg/kg/injection, schedule: Q01DX005 (ip), vehicle: water 97 % of control | endpoint: mean survival time, dose: 6.25 mg/kg/injection, schedule: Q01DX005 (ip), vehicle: water 98 % of control | endpoint: mean survival time, dose: 12.5 mg/kg/injection, schedule: Q01DX005 (ip), vehicle: water 98 % of control | endpoint: mean survival time, dose: 25.0 mg/kg/injection, schedule: Q01DX005 (ip), vehicle: water 97 % of control

C#CCOc1ccccc1O
inactive: endpoint: mean survival time, dose: 100.0 mg/kg/injection, schedule: Q04DX003 (ip), vehicle: acetone 101 % of control | endpoint: mean survival time, dose: 200.0 mg/kg/injection, schedule: Q04DX003 (ip), vehicle: acetone 103 % of control | endpoint: mean survival time, dose: 400.0 mg/kg/injection, schedule: Q04DX003 (ip), vehicle: acetone 95 % of control

OCCc1cc[nH]c1
inactive: [2] 104 % of control | [3] 95 % of control | [4] 101 % of control | [5] 97 % of control | [6] 113 % of control | [7] 97 % of control

C[N+]1(C)CC2CCCCC1C2=O (stereo not given)
inactive: endpoint: mean survival time, dose: 75.0 mg/kg/injection, schedule: Q01DX001 (ip), vehicle: saline 111 % of control | endpoint: mean survival time, dose: 150.0 mg/kg/injection, schedule: Q01DX001 (ip), vehicle: saline 101 % of control | endpoint: mean survival time, dose: 300.0 mg/kg/injection, schedule: Q01DX001 (ip), vehicle: saline 98 % of control

O=C(CCl)Cc1ccccc1
inactive: endpoint: mean survival time, dose: 50.0 mg/kg/injection, schedule: Q04DX003 (ip), vehicle: saline 98 % of control | [8] 104 % of control | [9] 92 % of control | [10] 103 % of control | [11] 101 % of control

CCCCNc1ccc2nnc(C)n2n1
inactive: endpoint: median survival time, dose: 50.0 mg/kg/injection, schedule: Q01DX005 (ip), vehicle: DMSO 100 % of control and 101 % of control | endpoint: median survival time, dose: 100.0 mg/kg/injection, schedule: Q01DX005 (ip), vehicle: DMSO 97 % of control and 100 % of control | endpoint: median survival time, dose: 200.0 mg/kg/injection, schedule: Q01DX005 (ip), vehicle: DMSO 104 % of control

CC(=O)N(C)N(Cc1ccc(C#N)cc1)C(C)=O
inactive: [12] 97 % of control | [13] 93 % of control | [14] 97 % of control | [15] 97 % of control | [16] 98 % of control

O=C(N/N=C/c1ccc([N+](=O)[O-])cc1[N+](=O)[O-])c1ccncc1
inactive: endpoint: mean survival time, dose: 12.5 mg/kg/injection, schedule: Q01DX009 (ip), vehicle: other 95 % of control | endpoint: mean survival time, dose: 25.0 mg/kg/injection, schedule: Q01DX009 (ip), vehicle: other 91 % of control | endpoint: mean survival time, dose: 50.0 mg/kg/injection, schedule: Q01DX009 (ip), vehicle: other 91 % of control | endpoint: mean survival time, dose: 100.0 mg/kg/injection, schedule: Q01DX009 (ip), vehicle: other 89 % of control | endpoint: mean survival time, dose: 200.0 mg/kg/injection, schedule: Q01DX009 (ip), vehicle: other 93 % of control

Cc1ccc(S(=O)(=O)/C=C(\C=C/c2ccccc2)c2ccccc2)cc1
inactive: [1] 103 % of control | [2] 103 % of control | [4] 106 % of control

COC(=O)CSC#N
inactive: endpoint: mean survival time, dose: 10.0 mg/kg/injection, schedule: Q01DX001 (ip), vehicle: saline 111 % of control | endpoint: mean survival time, dose: 20.0 mg/kg/injection, schedule: Q01DX001 (ip), vehicle: saline 107 % of control

NC(CCSc1ccccc1)C(=O)O (stereo not given)
inactive: [9] 104 % of control | [11] 102 % of control | [17] 88 % of control

COc1ccc(NC(=O)Nc2ccc(Br)cc2)cc1
inactive: [2] 88 % of control | [3] 96 % of control | [4] 89 % of control | [5] 98 % of control | [6] 89 % of control

O=C(C=[As](c1ccccc1)(c1ccccc1)c1ccccc1)c1ccccc1
inactive: endpoint: mean survival time, dose: 75.0 mg/kg/injection, schedule: Q01DX001 (ip), vehicle: other 91 % of control | endpoint: mean survival time, dose: 150.0 mg/kg/injection, schedule: Q01DX001 (ip), vehicle: other 100 % of control | endpoint: mean survival time, dose: 300.0 mg/kg/injection, schedule: Q01DX001 (ip), vehicle: other 91 % of control

CCOC(=O)C(C(C)=O)C(C(C)=O)C(=O)OCC (stereo not given)
inactive: endpoint: mean survival time, dose: 75.0 mg/kg/injection, schedule: Q01DX009 (ip), vehicle: saline with Tween-80 97 % of control | [3] 98 % of control | endpoint: mean survival time, dose: 150.0 mg/kg/injection, schedule: Q01DX009 (ip), vehicle: saline with Tween-80 97 % of control | [5] 95 % of control | endpoint: mean survival time, dose: 300.0 mg/kg/injection, schedule: Q01DX009 (ip), vehicle: saline with Tween-80 97 % of control | [7] 106 % of control

Cc1cccc(CC(F)(F)F)c1
inactive: [3] 102 % of control | [5] 100 % of control | [7] 89 % of control

C=CCCCCC/C=C/CCCCCC
inactive: [8] 96 % of control | [9] 108 % of control | [10] 98 % of control | [11] 103 % of control | endpoint: mean survival time, dose: 400.0 mg/kg/injection, schedule: Q01DX001 (ip), vehicle: saline 104 % of control | [17] 106 % of control

COc1ccc(C#N)c([N+](=O)[O-])c1
inactive: [3] 95 % of control | [5] 114 % of control

Cc1[nH]c(=S)[nH]c(=O)c1CC(C)O (stereo not given)
inactive: [2] 97 % of control | [4] 90 % of control | [6] 98 % of control

Nc1ccc(CCCCNC(=O)c2ccccc2)cc1
inactive: [3] 93 % of control | [5] 96 % of control | [7] 90 % of control

Oc1ccc(O)c(/C=N/NC(=S)NC2CC3CC2C2C=CCC32)c1 (stereo not given)
inactive: endpoint: mean survival time, dose: 12.5 mg/kg/injection, schedule: Q01DX009 (ip), vehicle: olive oil, sesame oil, peanut oil 93 % of control | endpoint: mean survival time, dose: 25.0 mg/kg/injection, schedule: Q01DX009 (ip), vehicle: olive oil, sesame oil, peanut oil 96 % of control | endpoint: mean survival time, dose: 50.0 mg/kg/injection, schedule: Q01DX009 (ip), vehicle: olive oil, sesame oil, peanut oil 100 % of control | endpoint: mean survival time, dose: 100.0 mg/kg/injection, schedule: Q01DX009 (ip), vehicle: olive oil, sesame oil, peanut oil 102 % of control | endpoint: mean survival time, dose: 200.0 mg/kg/injection, schedule: Q01DX009 (ip), vehicle: olive oil, sesame oil, peanut oil 87 % of control | endpoint: mean survival time, dose: 400.0 mg/kg/injection, schedule: Q01DX009 (ip), vehicle: olive oil, sesame oil, peanut oil 94 % of control

O=C1c2ccccc2CC12OC2c1ccccc1 (stereo not given)
inactive: [12] 103 % of control | [13] 110 % of control | [14] 89 % of control | [15] 98 % of control | [16] 98 % of control
